Measured values: patent US20130303509A1, “NAMPT INHIBITORS” (AbbVie Inc., priority 2012, published 2013)

Test system: PC3 cells
Assay: NAMPT Cell Proliferation Assay
Assay type: cell-based
Conditions: Homo sapiens, PC-3, 120 h, 5 days incubation, cell viability by Cell Titer Glo
Procedure, shortened: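 Five-day CellTiter-Glo viability readout in PC3 cells grown in RPMI/10% heat-inactivated FBS. Compounds added after overnight attachment as a 10-fold dilution series, […]. Percent inhibition fitted to sigmoidal dose-response to derive IC50.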

**Q.** Which IC50 does the source give for `CC(C)C(=O)N1CCC(c2ccc(C(=O)N[C@H]3CCN(c4cccnn4)C3)cc2)CC1` [Example 752, 4-[1-(2-methylpropanoyl)piperidin-4-yl]-N-[(3S)-1-(pyridazin-3-yl)pyrrolidin-3-yl]benzamide] here?
**A.** 2450 nM

**Q.** `CC(C)(O)Cn1cc(-c2ccc(NC(=O)C3CN(c4cccnn4)C3)cc2)cn1` [Example 753, N-{4-[1-(2-hydroxy-2-methylpropyl)-1H-pyrazol-4-yl]phenyl}-1-(pyridazin-3-yl)azetidine-3-carboxamide] was tested. Which IC50 did it give?
**A.** 8.92 nM

**Q.** How did the IC50 turn out when `O=C(N[C@H]1CCN(c2cccnn2)C1)c1ccc(C2CCN(C(=O)c3cccc(F)c3)CC2)s1` [Example 754, 5-[1-(3-fluorobenzoyl)piperidin-4-yl]-N-[(3S)-1-(pyridazin-3-yl)pyrrolidin-3-yl]thiophene-2-carboxamide] was run?
**A.** 94.8 nM

**Q.** For `O=C(N[C@H]1CCN(c2cccnn2)C1)c1ccc(C2CCN(C(=O)c3ccc(F)cc3)CC2)s1` [Example 755, 5-[1-(4-fluorobenzoyl)piperidin-4-yl]-N-[(3S)-1-(pyridazin-3-yl)pyrrolidin-3-yl]thiophene-2-carboxamide], which IC50 is on record?
**A.** 190 nM

**Q.** For `CC1(Cn2cc(-c3ccc(NC(=O)[C@H]4CCN(c5cccnn5)C4)cc3)cn2)CCOCC1` [Example 756, (3S)—N-(4-{1-[(4-methyltetrahydro-2H-pyran-4-yl)methyl]-1H-pyrazol-4-yl}phenyl)-1-(pyridazin-3-yl)pyrrolidine-3-carboxamide], which IC50 is on record?
**A.** 9.08 nM

**Q.** With `CC(C)(O)Cn1cc(-c2ccc(NC(=O)[C@H]3CCN(c4cccnn4)C3)cc2)cn1` [Example 757, (3S)-N-{4-[1-(2-hydroxy-2-methylpropyl)-1H-pyrazol-4-yl]phenyl}-1-(pyridazin-3-yl)pyrrolidine-3-carboxamide] as the molecule, how does the IC50 read?
**A.** 67.7 nM

**Q.** How did the IC50 turn out when `O=C(N[C@H]1CCN(c2cccnn2)C1)c1ccc(C2CCN(C(=O)C3CCOCC3)CC2)s1` [Example 758, N-[(3S)-1-(pyridazin-3-yl)pyrrolidin-3-yl]-5-[1-(tetrahydro-2H-pyran-4-ylcarbonyl)piperidin-4-yl]thiophene-2-carboxamide] was run?
**A.** 857 nM

**Q.** Which IC50 does the source give for `CC(C)(C)Cn1cc(-c2ccc(NC(=O)[C@H]3CCN(c4cccnn4)C3)cc2)cn1` [Example 759, (3S)-N-{4-[1-(2,2-dimethylpropyl)-1H-pyrazol-4-yl]phenyl}-1-(pyridazin-3-yl)pyrrolidine-3-carboxamide] here?
**A.** 6.2 nM

**Q.** Which IC50 does the source give for `CC(C)C(=O)N1CCC(c2ccc(C(=O)N[C@H]3CCN(c4cccnn4)C3)s2)CC1` [Example 760, 5-[1-(2-methylpropanoyl)piperidin-4-yl]-N-[(3S)-1-(pyridazin-3-yl)pyrrolidin-3-yl]thiophene-2-carboxamide] here?
**A.** 253 nM

**Q.** For `O=C(N[C@H]1CCN(c2cccnn2)C1)c1ccc(C2CCN(C(=O)c3ccc(F)cc3F)CC2)s1` [Example 761, 5-[1-(2,4-difluorobenzoyl)piperidin-4-yl]-N-[(3S)-1-(pyridazin-3-yl)pyrrolidin-3-yl]thiophene-2-carboxamide], which IC50 is on record?
**A.** 92.3 nM

**Q.** Which IC50 does the source give for `CC1CC1C(=O)N1CCC(c2ccc(C(=O)N[C@H]3CCN(c4cccnn4)C3)s2)CC1` (stereo partly drawn) [Example 762, 5-{1-[(2-methylcyclopropyl)carbonyl]piperidin-4-yl}-N-[(3S)-1-(pyridazin-3-yl)pyrrolidin-3-yl]thiophene-2-carboxamide] here?
**A.** 709 nM

**Q.** Which IC50 does the source give for `O=C(N[C@H]1CCN(c2cccnn2)C1)c1ccc(C2CCN(C(=O)c3ccccc3F)CC2)s1` [Example 763, 5-[1-(2-fluorobenzoyl)piperidin-4-yl]-N-[(3S)-1-(pyridazin-3-yl)pyrrolidin-3-yl]thiophene-2-carboxamide] here?
**A.** 8.41 nM

**Q.** `O=C(N[C@H]1CCN(c2cccnn2)C1)c1ccc(C2CCN(C(=O)c3ccccc3)CC2)s1` [Example 764, 5-(1-benzoylpiperidin-4-yl)-N-[(3S)-1-(pyridazin-3-yl)pyrrolidin-3-yl]thiophene-2-carboxamide] was tested. Which IC50 did it give?
**A.** 22.1 nM

**Q.** `O=C(N[C@H]1CCN(c2cccnn2)C1)c1ccc(C2CCN(C(=O)C3CCOC3)CC2)s1` (stereo partly drawn) [Example 765, N-[(3S)-1-(pyridazin-3-yl)pyrrolidin-3-yl]-5-[1-(tetrahydrofuran-3-ylcarbonyl)piperidin-4-yl]thiophene-2-carboxamide] was tested. Which IC50 did it give?
**A.** 1020 nM

**Q.** With `O=C(N[C@H]1CCN(c2cccnn2)C1)c1ccc(C2CCN(C(=O)[C@H]3CCCO3)CC2)s1` [Example 766, N-[(3S)-1-(pyridazin-3-yl)pyrrolidin-3-yl]-5-{1-[(2R)-tetrahydrofuran-2-ylcarbonyl]piperidin-4-yl}thiophene-2-carboxamide] as the molecule, how does the IC50 read?
**A.** 787 nM

**Q.** How did the IC50 turn out when `CN1CCC(CC(=O)N2CCC(c3ccc(C(=O)N[C@H]4CCN(c5cccnn5)C4)s3)CC2)CC1` [Example 767, 5-{1-[(1-methylpiperidin-4-yl)acetyl]piperidin-4-yl}-N-[(3S)-1-(pyridazin-3-yl)pyrrolidin-3-yl]thiophene-2-carboxamide] was run?
**A.** 1280 nM

**Q.** Which IC50 does the source give for `O=C(N[C@H]1CCN(c2cccnn2)C1)c1ccc(C2CCN(C(=O)c3cscn3)CC2)s1` [Example 768, N-[(3S)-1-(pyridazin-3-yl)pyrrolidin-3-yl]-5-[1-(1,3-thiazol-4-ylcarbonyl)piperidin-4-yl]thiophene-2-carboxamide] here?
**A.** 111 nM

**Q.** `CC(C)Cn1cc(-c2ccc(NC(=O)[C@H]3CCN(c4cccnn4)C3)cc2)cn1` [Example 769, (3S)-N-{4-[1-(2-methylpropyl)-1H-pyrazol-4-yl]phenyl}-1-(pyridazin-3-yl)pyrrolidine-3-carboxamide] was tested. Which IC50 did it give?
**A.** 18.6 nM

**Q.** With `CC(C)n1cc(-c2ccc(NC(=O)[C@H]3CCN(c4cccnn4)C3)cc2)cn1` [Example 770, (3S)-N-{4-[1-(propan-2-yl)-1H-pyrazol-4-yl]phenyl}-1-(pyridazin-3-yl)pyrrolidine-3-carboxamide] as the molecule, how does the IC50 read?
**A.** 138 nM

**Q.** For `O=C(Nc1ccc(-c2cnn(CC3CC3)c2)cc1)[C@H]1CCN(c2cccnn2)C1` [Example 771, (3S)-N-{4-[1-(cyclopropylmethyl)-1H-pyrazol-4-yl]phenyl}-1-(pyridazin-3-yl)pyrrolidine-3-carboxamide], which IC50 is on record?
**A.** 69.9 nM

**Q.** With `O=C(Nc1ccc(-c2cnn(CC3CCCCO3)c2)cc1)[C@H]1CCN(c2cccnn2)C1` (stereo partly drawn) [Example 772, (3S)-1-(pyridazin-3-yl)-N-{4-[1-(tetrahydro-2H-pyran-2-ylmethyl)-1H-pyrazol-4-yl]phenyl}pyrrolidine-3-carboxamide] as the molecule, how does the IC50 read?
**A.** 63.6 nM

**Q.** For `CC(C)(C)n1cc(-c2ccc(NC(=O)[C@H]3CCN(c4cccnn4)C3)cc2)cn1` [Example 773, (3S)-N-[4-(1-tert-butyl-1H-pyrazol-4-yl)phenyl]-1-(pyridazin-3-yl)pyrrolidine-3-carboxamide], which IC50 is on record?
**A.** 85.7 nM

**Q.** Which IC50 does the source give for `O=C(Nc1ccc(O[C@@H]2CCN(C(=O)c3ccccc3)C2)cc1)[C@H]1CCN(c2cccnn2)C1` [Example 774, (3S)—N-(4-{[(3R)-1-benzoylpyrrolidin-3-yl]oxy}phenyl)-1-(pyridazin-3-yl)pyrrolidine-3-carboxamide] here?
**A.** 2.52 nM

**Q.** With `O=C(Nc1ccc(O[C@@H]2CCN(C(=O)c3ccccc3F)C2)cc1)[C@H]1CCN(c2cccnn2)C1` [Example 775, (3S)-N-(4-{[(3R)-1-(2-fluorobenzoyl)pyrrolidin-3-yl]oxy}phenyl)-1-(pyridazin-3-yl)pyrrolidine-3-carboxamide] as the molecule, how does the IC50 read?
**A.** 2.15 nM

**Q.** With `O=C(Nc1ccc(O[C@@H]2CCN(C(=O)c3cccc(F)c3)C2)cc1)[C@H]1CCN(c2cccnn2)C1` [Example 776, (3S)-N-(4-{[(3R)-1-(3-fluorobenzoyl)pyrrolidin-3-yl]oxy}phenyl)-1-(pyridazin-3-yl)pyrrolidine-3-carboxamide] as the molecule, how does the IC50 read?
**A.** 7.64 nM

**Q.** For `O=C(Nc1ccc(O[C@@H]2CCN(C(=O)c3ccc(F)cc3)C2)cc1)[C@H]1CCN(c2cccnn2)C1` [Example 777, (3S)-N-(4-{[(3R)-1-(4-fluorobenzoyl)pyrrolidin-3-yl]oxy}phenyl)-1-(pyridazin-3-yl)pyrrolidine-3-carboxamide], which IC50 is on record?
**A.** 19.2 nM

**Q.** Which IC50 does the source give for `O=C(Nc1ccc(O[C@@H]2CCN(C(=O)c3cc(F)cc(F)c3)C2)cc1)[C@H]1CCN(c2cccnn2)C1` [Example 778, (3S)-N-(4-{[(3R)-1-(3,5-difluorobenzoyl)pyrrolidin-3-yl]oxy}phenyl)-1-(pyridazin-3-yl)pyrrolidine-3-carboxamide] here?
**A.** 19.7 nM

**Q.** How did the IC50 turn out when `Cc1ccccc1C(=O)N1CC[C@@H](Oc2ccc(NC(=O)[C@H]3CCN(c4cccnn4)C3)cc2)C1` [Example 779, (3S)-N-(4-{[(3R)-1-(2-methylbenzoyl)pyrrolidin-3-yl]oxy}phenyl)-1-(pyridazin-3-yl)pyrrolidine-3-carboxamide] was run?
**A.** 1.48 nM

**Q.** Which IC50 does the source give for `CC(C)(C)C(=O)N1CC[C@@H](Oc2ccc(NC(=O)[C@H]3CCN(c4cccnn4)C3)cc2)C1` [Example 780, (3S)-N-(4-{[(3R)-1-(2,2-dimethylpropanoyl)pyrrolidin-3-yl]oxy}phenyl)-1-(pyridazin-3-yl)pyrrolidine-3-carboxamide] here?
**A.** 4.07 nM

**Q.** How did the IC50 turn out when `O=C(Nc1ccc(O[C@@H]2CCN(C(=O)C3CCC(F)(F)CC3)C2)cc1)[C@H]1CCN(c2cccnn2)C1` [Example 781, (3S)-N-[4-({(3R)-1-[(4,4-difluorocyclohexyl)carbonyl]pyrrolidin-3-yl}oxy)phenyl]-1-(pyridazin-3-yl)pyrrolidine-3-carboxamide] was run?
**A.** 10 nM

**Q.** With `O=C(Nc1ccc(O[C@@H]2CCN(C(=O)CCC(F)(F)F)C2)cc1)[C@H]1CCN(c2cccnn2)C1` [Example 782, (3S)-1-(pyridazin-3-yl)-N-(4-{[(3R)-1-(4,4,4-trifluorobutanoyl)pyrrolidin-3-yl]oxy}phenyl)pyrrolidine-3-carboxamide] as the molecule, how does the IC50 read?
**A.** 66.9 nM

**Q.** For `O=C(Nc1ccc(O[C@@H]2CCN(C(=O)c3ccc(F)cc3F)C2)cc1)[C@H]1CCN(c2cccnn2)C1` [Example 783, (3S)-N-(4-{[(3R)-1-(2,4-difluorobenzoyl)pyrrolidin-3-yl]oxy}phenyl)-1-(pyridazin-3-yl)pyrrolidine-3-carboxamide], which IC50 is on record?
**A.** 6.46 nM

**Q.** `CCCc1nc(-c2ccc(NC(=O)C3CN(c4cccnn4)C3)cc2)no1` [Example 784, N-[4-(5-propyl-1,2,4-oxadiazol-3-yl)phenyl]-1-(pyridazin-3-yl)azetidine-3-carboxamide] was tested. Which IC50 did it give?
**A.** 16 nM
